Reference: PubChem BioAssay AID248 (DTP/NCI, 2004)
“And” between values parts separate entries of the source, which are not always exact repeats. Equal entries are not always repeated. Inconclusive results and toxic doses are left out.

Tested on: L1210 leukemia ip in BDF1 mice, survival T/C
Assay: NCI In Vivo Anticancer Drug Screen. Data for tumor model L1210 Leukemia (intraperitoneal) in B6D2F1 (BDF1) mice
Conditions: higher = longer survival
Procedure, shortened: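 Tumor cells were implanted, animals were treated, and survival was followed. The result divides the treated measurement by the vehicle-control measurement.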

[1] = endpoint: mean survival time, dose: 50.0 mg/kg/injection, schedule: Q04DX003 (ip), vehicle: Klucel (hydroxypropylcellulose) (HPC)
[2] = endpoint: mean survival time, dose: 100.0 mg/kg/injection, schedule: Q04DX003 (ip), vehicle: Klucel (hydroxypropylcellulose) (HPC)
[3] = endpoint: mean survival time, dose: 100.0 mg/kg/injection, schedule: Q04DX003 (ip), vehicle: saline with Tween-80
[4] = endpoint: mean survival time, dose: 100.0 mg/kg/injection, schedule: Q01DX009 (ip), vehicle: saline
[5] = endpoint: mean survival time, dose: 100.0 mg/kg/injection, schedule: Q04DX003 (ip), vehicle: saline
[6] = endpoint: mean survival time, dose: 100.0 mg/kg/injection, schedule: Q01DX001 (ip), vehicle: saline
[7] = endpoint: mean survival time, dose: 200.0 mg/kg/injection, schedule: Q01DX001 (ip), vehicle: saline
[8] = endpoint: mean survival time, dose: 50.0 mg/kg/injection, schedule: Q01DX001 (ip), vehicle: saline
[9] = endpoint: mean survival time, dose: 400.0 mg/kg/injection, schedule: Q01DX001 (ip), vehicle: saline
[10] = endpoint: mean survival time, dose: 50.0 mg/kg/injection, schedule: Q01DX009 (ip), vehicle: saline
[11] = endpoint: mean survival time, dose: 200.0 mg/kg/injection, schedule: Q04DX003 (ip), vehicle: Klucel (hydroxypropylcellulose) (HPC)
[12] = endpoint: mean survival time, dose: 400.0 mg/kg/injection, schedule: Q04DX003 (ip), vehicle: Klucel (hydroxypropylcellulose) (HPC)

Structure (SMILES): Clc1ccc2nc(CBr)cnc2c1
- T/C (endpoint: mean survival time, dose: 3.13 mg/kg/injection, schedule: Q01DX009 (ip), vehicle: Klucel (hydroxypropylcellulose) (HPC)): 97 % of control
- T/C (endpoint: mean survival time, dose: 6.25 mg/kg/injection, schedule: Q01DX009 (ip), vehicle: Klucel (hydroxypropylcellulose) (HPC)): 95 % of control and 102 % of control
- T/C (endpoint: mean survival time, dose: 12.5 mg/kg/injection, schedule: Q01DX009 (ip), vehicle: Klucel (hydroxypropylcellulose) (HPC)): 100 % of control and 120 % of control and 87 % of control
- T/C (endpoint: mean survival time, dose: 25.0 mg/kg/injection, schedule: Q01DX009 (ip), vehicle: saline with Tween-80): 100 % of control
- T/C (endpoint: mean survival time, dose: 25.0 mg/kg/injection, schedule: Q04DX003 (ip), vehicle: Klucel (hydroxypropylcellulose) (HPC)): 95 % of control
- T/C (endpoint: mean survival time, dose: 50.0 mg/kg/injection, schedule: Q01DX009 (ip), vehicle: saline with Tween-80): 95 % of control
- T/C [1]: 96 % of control
- T/C [2]: 93 % of control
- T/C [3]: 90 % of control

Structure (SMILES): Nc1ccc(CCC(=O)NC(CCC(=O)O)C(=O)O)cc1 (stereo not drawn)
- T/C [4]: 102 % of control
- T/C (endpoint: mean survival time, dose: 100.0 mg/kg/injection, schedule: Q04DX002 (ip), vehicle: saline): 98 % of control
- T/C (endpoint: mean survival time, dose: 200.0 mg/kg/injection, schedule: Q01DX009 (ip), vehicle: saline): 108 % of control
- T/C (endpoint: mean survival time, dose: 200.0 mg/kg/injection, schedule: Q04DX002 (ip), vehicle: saline): 105 % of control
- T/C (endpoint: mean survival time, dose: 400.0 mg/kg/injection, schedule: Q01DX009 (ip), vehicle: saline): 96 % of control
- T/C (endpoint: mean survival time, dose: 400.0 mg/kg/injection, schedule: Q04DX002 (ip), vehicle: saline): 94 % of control

Structure (SMILES): CCN(CC)CC(C)OC(=O)c1ccc(N)cc1 (stereo not drawn)
- T/C [5]: 103 % of control
- T/C (endpoint: mean survival time, dose: 200.0 mg/kg/injection, schedule: Q04DX003 (ip), vehicle: saline): 101 % of control

Structure (SMILES): N#CC(Oc1ccccc1)c1ccccc1 (stereo not drawn)
- T/C [3]: 98 % of control
- T/C (endpoint: mean survival time, dose: 400.0 mg/kg/injection, schedule: Q04DX003 (ip), vehicle: saline with Tween-80): 104 % of control

Structure (SMILES): C=CCNC(=O)NCC=C
- T/C (endpoint: mean survival time, dose: 6.25 mg/kg/injection, schedule: Q01DX009 (ip), vehicle: saline): 114 % of control
- T/C (endpoint: mean survival time, dose: 6.25 mg/kg/injection, schedule: Q01DX009 (oral), vehicle: saline): 116 % of control
- T/C (endpoint: mean survival time, dose: 12.5 mg/kg/injection, schedule: Q01DX009 (ip), vehicle: saline): 105 % of control and 106 % of control
- T/C (endpoint: mean survival time, dose: 12.5 mg/kg/injection, schedule: Q01DX009 (oral), vehicle: saline): 110 % of control
- T/C (endpoint: mean survival time, dose: 50.0 mg/kg/injection, schedule: Q01DX009 (oral), vehicle: saline): 176 % of control
- T/C [6]: 111 % of control
- T/C [7]: 114 % of control
- T/C (endpoint: mean survival time, dose: 200.0 mg/kg/injection, schedule: Q01DX009 (oral), vehicle: saline): 100 % of control
- T/C (endpoint: mean survival time, dose: 300.0 mg/kg/injection, schedule: Q01DX009 (ip), vehicle: saline): 122 % of control
- T/C (endpoint: median survival time, dose: 12.5 mg/kg/injection, schedule: Q01DX009 (ip), vehicle: saline): 122 % of control
- T/C (endpoint: median survival time, dose: 12.5 mg/kg/injection, schedule: Q01DX009 (sc), vehicle: saline): 116 % of control
- T/C (endpoint: median survival time, dose: 50.0 mg/kg/injection, schedule: Q01DX009 (ip), vehicle: saline): 112 % of control and 122 % of control
- T/C (endpoint: median survival time, dose: 100.0 mg/kg/injection, schedule: Q01DX001 (ip), vehicle: saline): 105 % of control
- T/C (endpoint: median survival time, dose: 100.0 mg/kg/injection, schedule: Q01DX001 (sc), vehicle: saline): 105 % of control
- T/C (endpoint: median survival time, dose: 100.0 mg/kg/injection, schedule: Q04DX003 (ip), vehicle: saline): 105 % of control
- T/C (endpoint: median survival time, dose: 100.0 mg/kg/injection, schedule: Q04DX003 (sc), vehicle: saline): 111 % of control
- T/C (endpoint: median survival time, dose: 200.0 mg/kg/injection, schedule: Q01DX001 (ip), vehicle: saline): 111 % of control
- T/C (endpoint: median survival time, dose: 200.0 mg/kg/injection, schedule: Q01DX001 (sc), vehicle: saline): 111 % of control
- T/C (endpoint: median survival time, dose: 200.0 mg/kg/injection, schedule: Q01DX009 (ip), vehicle: saline): 100 % of control and 122 % of control
- T/C (endpoint: median survival time, dose: 200.0 mg/kg/injection, schedule: Q04DX003 (ip), vehicle: saline): 116 % of control
- T/C (endpoint: median survival time, dose: 200.0 mg/kg/injection, schedule: Q04DX003 (sc), vehicle: saline): 116 % of control

Structure (SMILES): C[C@H]1C[C@@H]2[C@H]([C@@H](O)C[C@@]3(C)[C@H]2CC[C@]3(O)C(=O)CF)[C@@]2(C)C=CC(=O)C=C12
- T/C (endpoint: mean survival time, dose: 62.0 mg/kg/injection, schedule: Q01DX015 (sc), vehicle: steriod suspending solution): 97 % of control
- T/C (endpoint: mean survival time, dose: 100.0 mg/kg/injection, schedule: Q04DX003 (sc), vehicle: Klucel (hydroxypropylcellulose) (HPC)): 101 % of control
- T/C (endpoint: mean survival time, dose: 125.0 mg/kg/injection, schedule: Q01DX015 (sc), vehicle: steriod suspending solution): 94 % of control
- T/C (endpoint: mean survival time, dose: 200.0 mg/kg/injection, schedule: Q04DX003 (sc), vehicle: Klucel (hydroxypropylcellulose) (HPC)): 102 % of control
- T/C (endpoint: mean survival time, dose: 250.0 mg/kg/injection, schedule: Q01DX015 (sc), vehicle: steriod suspending solution): 102 % of control
- T/C (endpoint: mean survival time, dose: 400.0 mg/kg/injection, schedule: Q04DX003 (sc), vehicle: Klucel (hydroxypropylcellulose) (HPC)): 115 % of control
- T/C (endpoint: mean survival time, dose: 500.0 mg/kg/injection, schedule: Q01DX015 (sc), vehicle: steriod suspending solution): 102 % of control

Structure (SMILES): CC(C)COC(=O)C1(N)CCCC1
- T/C (endpoint: mean survival time, dose: 30.0 mg/kg/injection, schedule: Q01DX Z (ip), vehicle: saline): 113 % of control
- T/C (endpoint: mean survival time, dose: 45.0 mg/kg/injection, schedule: Q01DX009 (ip), vehicle: saline): 109 % of control
- T/C (endpoint: mean survival time, dose: 45.0 mg/kg/injection, schedule: Q01DX Z (ip), vehicle: saline): 121 % of control
- T/C (endpoint: mean survival time, dose: 66.0 mg/kg/injection, schedule: Q01DX009 (ip), vehicle: saline): 114 % of control
- T/C (endpoint: mean survival time, dose: 150.0 mg/kg/injection, schedule: Q01DX Z (ip), vehicle: saline): 114 % of control and 118 % of control
- T/C (endpoint: mean survival time, dose: 224.0 mg/kg/injection, schedule: Q01DX Z (ip), vehicle: saline): 120 % of control
- T/C (endpoint: mean survival time, dose: 336.0 mg/kg/injection, schedule: Q01DX Z (ip), vehicle: saline): 103 % of control

Structure (SMILES): O=C(Cc1ccccc1)c1ccc2c3c(ccc([N+](=O)[O-])c13)CC2
- T/C (endpoint: mean survival time, dose: 100.0 mg/kg/injection, schedule: Q04DX003 (ip), vehicle: acetone): 101 % of control
- T/C (endpoint: mean survival time, dose: 200.0 mg/kg/injection, schedule: Q04DX003 (ip), vehicle: acetone): 105 % of control
- T/C (endpoint: mean survival time, dose: 400.0 mg/kg/injection, schedule: Q04DX003 (ip), vehicle: acetone): 105 % of control

Structure (SMILES): OCC(O)C(O)C(O)C(O)C(c1ccccc1)c1ccccc1 (stereo not drawn)
- T/C [8]: 107 % of control
- T/C [6]: 103 % of control
- T/C [7]: 101 % of control
- T/C [9]: 101 % of control

Structure (SMILES): CCN(CC)CCOC(=O)c1ccc(C(Cl)Cl)cc1
- T/C [10]: 88 % of control
- T/C [4]: 88 % of control

Structure (SMILES): CC(=O)CC(=O)c1cc(C(C)=O)c(O)c(C(C)=O)c1
- T/C [1]: 101 % of control
- T/C [2]: 108 % of control
- T/C [11]: 103 % of control
- T/C [12]: 101 % of control

Structure (SMILES): CCNCCCN
- T/C (endpoint: mean survival time, dose: 25.0 mg/kg/injection, schedule: Q01DX009 (ip), vehicle: saline): 97 % of control
- T/C (endpoint: mean survival time, dose: 25.0 mg/kg/injection, schedule: Q04DX003 (ip), vehicle: saline): 115 % of control
- T/C [10]: 101 % of control
- T/C (endpoint: mean survival time, dose: 50.0 mg/kg/injection, schedule: Q04DX003 (ip), vehicle: saline): 115 % of control
- T/C [4]: 103 % of control
- T/C [5]: 93 % of control and 103 % of control

Structure (SMILES): COc1ccc(OC)c(N)c1
- T/C (endpoint: mean survival time, dose: 25.0 mg/kg/injection, schedule: Q01DX009 (ip), vehicle: Klucel (hydroxypropylcellulose) (HPC)): 88 % of control
- T/C (endpoint: mean survival time, dose: 50.0 mg/kg/injection, schedule: Q01DX009 (ip), vehicle: Klucel (hydroxypropylcellulose) (HPC)): 93 % of control
- T/C (endpoint: mean survival time, dose: 100.0 mg/kg/injection, schedule: Q01DX009 (ip), vehicle: Klucel (hydroxypropylcellulose) (HPC)): 93 % of control

Structure (SMILES): COC(OC)(/C(Cl)=C(\Cl)c1ccccc1)c1ccccc1
- T/C (endpoint: mean survival time, dose: 100.0 mg/kg/injection, schedule: Q04DX002 (ip), vehicle: saline with Tween-80): 94 % of control
- T/C (endpoint: mean survival time, dose: 200.0 mg/kg/injection, schedule: Q04DX002 (ip), vehicle: saline with Tween-80): 88 % of control

Structure (SMILES): O=[N+]([O-])c1ccc(S(=O)(=O)n2cccc2)cc1
- T/C [8]: 98 % of control
- T/C [6]: 95 % of control
- T/C [7]: 95 % of control
- T/C [9]: 98 % of control

Structure (SMILES): O=C(O)CCCCC(=O)c1cc(O)ccc1O
- T/C [2]: 102 % of control
- T/C [11]: 104 % of control
- T/C [12]: 102 % of control

Structure (SMILES): CCn1c(=O)n(C)c(=O)n1C(=O)c1ccccc1
- T/C (endpoint: mean survival time, dose: 100.0 mg/kg/injection, schedule: Q04DX003 (ip), vehicle: carboxymethylcellulose (CMC)): 102 % of control
- T/C (endpoint: mean survival time, dose: 200.0 mg/kg/injection, schedule: Q04DX003 (ip), vehicle: carboxymethylcellulose (CMC)): 104 % of control
- T/C (endpoint: mean survival time, dose: 400.0 mg/kg/injection, schedule: Q04DX003 (ip), vehicle: carboxymethylcellulose (CMC)): 109 % of control
